Source: the supplement of paper PMC10331698
± gives the standard deviation of the averaged measurements.

How the values were obtained:
Test in all cases: level (log10 ratio to DMSO vehicle control); higher = higher biomarker level / cell amount than vehicle control
Settings in all cases: in DMSO
[1] = compound: NC(=O)C(F)(F)C(F)(F)C(F)(F)C(F)(F)F [Nonafluoropentanamide]
Method: (§1)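 BioMAP Diversity Plus panel of 12 human primary cell co-culture systems (3C, 4H, LPS, SAg, BT, BF4T, BE3C, CASM3C, HDF3CGF, KF3CT, MyoF, Mphg). Compounds were added 1 h before stimulation and left for 24 h (MyoF 48 h; BT 72 h for soluble read-outs or 6 d for IgG). Biomarkers were read by ELISA, cytotoxicity by SRB, PBMC viability and proliferation by Alamar Blue. Each well value was divided by the mean of 8 DMSO control wells on the same plate and log10 transformed; duplicate blinded samples were tested at 4 concentrations.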

[2] = compound: O=C(O)C(F)(F)C(F)(F)C(F)(F)C(F)(F)C(F)(F)C(F)(F)C(F)(F)C(F)(F)C(F)(F)C(F)F [11-H-Perfluoroundecanoic acid]
Method: as §1

[3] = compound: OCC(F)(F)C(F)(F)C(F)(F)CO [Hexafluoroamylene glycol]
Method: as §1

[4] = compound: O=C(O)C=CC(F)(C(F)(F)F)C(F)(F)F [3-(Perfluoroisopropyl)-2-propenoic acid]
Method: as §1

[5] = compound: O=S(=O)(O)C(F)(F)C(F)(F)C(F)(F)C(F)(F)C(F)(F)C(F)(F)C(F)(F)C(F)(F)C(F)(F)C(F)(F)F [Sodium perfluorodecanesulfonate]
Method: as §1

[6] = compound: FC(F)(F)C(F)(F)CNCC(F)(F)C(F)(F)F [Bis(1H,1H-perfluoropropyl)amine]
Method: as §1

Row | Test System | level (log10) ([1]; 6700 nM) | level (log10) ([1]; 20000 nM) | level (log10) ([1]; 60000 nM) | level (log10) ([2]; 6700 nM) | level (log10) ([2]; 20000 nM) | level (log10) ([3]; 6700 nM) | level (log10) ([3]; 20000 nM) | level (log10) ([3]; 60000 nM) | level (log10) ([4]; 6700 nM) | level (log10) ([4]; 20000 nM) | level (log10) ([4]; 60000 nM) | level (log10) ([5]; 1500 nM) | level (log10) ([5]; 4400 nM) | level (log10) ([5]; 13000 nM) | level (log10) ([5]; 40000 nM) | level (log10) ([6]; 6700 nM) | level (log10) ([6]; 20000 nM) | level (log10) ([6]; 60000 nM)
1 | MyoF:bFGF | 0.0185 ± 0.023 | -0.003 ± 0.0099 | -0.007 ± 0.0057 | 0.006 ± 0.0099 | 0.005 | -0.007 ± 0.017 | 0.006 ± 0.0085 | 0.0125 ± 0.019 | 0 ± 0.0028 | 0.006 ± 0.027 | 0.006 ± 0.017 | 0.0025 ± 0.005 | 0.033 | 0.015 ± 0.0057 | 0.023 ± 0.011 | -0.0065 ± 0.013 | -0.0045 ± 0.005 | 0.013 ± 0.025
2 | lMphg:CD69 | -0.005 | -0.021 ± 0.016 | -0.028 ± 0.018 | -0.054 ± 0.0085 | -0.039 ± 0.013 | -0.046 ± 0.027 | -0.0425 ± 0.025 | -0.027 ± 0.0071 | -0.0265 ± 0.022 | -0.021 ± 0.035 | 0.0235 ± 0.049 | -0.001 ± 0.014 | -0.022 ± 0.052 | -0.0095 ± 0.032 | -0.084 ± 0.011 | -0.017 ± 0.028 | -0.012 ± 0.03 | 0.0045 ± 0.14
3 | HDF3CGF:CCL2/MCP-1 | -0.0025 ± 0.019 | 0.0065 ± 0.012 | 0.01 ± 0.035 | 0.0125 ± 0.0064 | -0.065 ± 0.014 | -0.003 ± 0.0071 | -0.004 ± 0.0057 | 0.007 ± 0.0071 | -0.006 ± 0.018 | 0.006 ± 0.0085 | 0.017 ± 0.017 | -0.0105 ± 0.05 | -0.018 ± 0.035 | 0.0415 ± 0.025 | 0.112 ± 0.0099 | -0.032 ± 0.023 | -0.021 ± 0.011 | 0.014 ± 0.031
4 | CASM3C:CD106/VCAM-1 | -0.0405 ± 0.039 | -0.0105 ± 0.0035 | 0.01 ± 0.042 | -0.016 ± 0.027 | -0.023 ± 0.021 | -0.0015 ± 0.023 | -0.012 ± 0.025 | -0.0015 ± 0.021 | -0.0315 ± 0.013 | -0.015 ± 0.0014 | -0.0045 ± 0.071 | -0.043 ± 0.037 | -0.0795 ± 0.026 | -0.158 ± 0.037 | -0.153 ± 0.045 | -0.06 ± 0.024 | -0.0545 ± 0.026 | -0.0105 ± 0.053
5 | CASM3C:SRB | 0.005 ± 0.0057 | 0.0025 ± 0.0035 | 0.0035 ± 0.0035 | 0.0025 ± 0.0078 | 0.008 ± 0.0028 | -0.0005 ± 0.013 | -0.0085 ± 0.00071 | -0.0045 ± 0.0078 | 0.006 ± 0.0042 | -0.011 ± 0.0042 | -0.003 ± 0.0028 | -0.0035 ± 0.011 | -0.005 ± 0.0085 | 0 ± 0.0028 | -0.007 ± 0.0085 | 0.0065 ± 0.005 | -0.001 ± 0.0028 | 0.008
6 | 3C:Proliferation | 0.028 ± 0.018 | 0.016 ± 0.03 | -0.0145 ± 0.021 | -0.0185 ± 0.074 | 0.0405 ± 0.016 | -0.0035 ± 0.028 | 0.0075 ± 0.067 | 0.019 ± 0.03 | -0.0185 ± 0.09 | -0.002 ± 0.037 | -0.0145 ± 0.049 | -0.0815 ± 0.013 | -0.056 ± 0.017 | -0.038 ± 0.02 | -0.229 ± 0.011 | 0.008 ± 0.023 | 0.0205 ± 0.00071 | -0.0025 ± 0.018
7 | MyoF:alpha-SM Actin | -0.023 ± 0.027 | 0.0035 ± 0.04 | -0.0055 ± 0.063 | -0.044 ± 0.033 | -0.11 ± 0.033 | 0.024 ± 0.0085 | 0.0155 ± 0.013 | 0.025 ± 0.02 | 0.0065 ± 0.021 | 0 ± 0.054 | 0.0245 ± 0.011 | 0.01 ± 0.0057 | -0.0065 ± 0.013 | 0.006 ± 0.025 | 0.0175 ± 0.0021 | 0.0315 ± 0.037 | 0.0225 ± 0.046 | 0.0245 ± 0.043
8 | HDF3CGF:Collagen I | 0.02 ± 0.031 | 0.013 ± 0.057 | 0.067 ± 0.033 | -0.093 ± 0.034 | -0.077 ± 0.025 | -0.005 ± 0.047 | 0.005 ± 0.09 | 0.0485 ± 0.12 | -0.0205 ± 0.043 | -0.0065 ± 0.023 | 0.0475 ± 0.035 | -0.0095 ± 0.012 | -0.01 | 0.067 ± 0.011 | 0.0845 ± 0.042 | -0.0295 ± 0.015 | -0.015 ± 0.017 | 0.0085 ± 0.056
9 | HDF3CGF:CXCL9/MIG | 0.017 ± 0.0028 | -0.0025 ± 0.0064 | 0.005 ± 0.018 | -0.089 ± 0.0099 | -0.222 ± 0.014 | -0.001 ± 0.038 | 0.0055 ± 0.035 | -0.035 ± 0.083 | 0.017 ± 0.0071 | 0.02 ± 0.011 | 0.011 ± 0.023 | -0.0085 ± 0.022 | -0.0565 ± 0.00071 | 0.029 ± 0.0085 | 0.049 ± 0.014 | -0.002 ± 0.0028 | -0.0025 ± 0.018 | 0.004 ± 0.024
10 | HDF3CGF:EGFR | -0.067 ± 0.058 | -0.048 ± 0.016 | -0.002 ± 0.042 | -0.022 ± 0.011 | -0.124 ± 0.018 | -0.028 ± 0.02 | -0.0305 ± 0.04 | -0.0035 ± 0.005 | -0.0025 ± 0.005 | 0.0015 ± 0.005 | 0.0265 ± 0.025 | -0.009 ± 0.067 | -0.0295 ± 0.0092 | -0.001 ± 0.0014 | 0.079 ± 0.0099 | -0.0205 ± 0.06 | -0.0615 ± 0.14 | 0.034 ± 0.025
11 | MyoF:CD106/VCAM-1 | -0.016 ± 0.0014 | -0.003 | 0.0055 ± 0.016 | 0.0035 ± 0.0078 | -0.152 ± 0.02 | -0.0015 ± 0.0092 | -0.022 ± 0.02 | -0.0045 ± 0.015 | 0.006 ± 0.011 | 0.0035 ± 0.00071 | -0.0035 ± 0.0035 | 0.0005 ± 0.013 | -0.0005 ± 0.013 | -0.01 ± 0.0014 | -0.035 ± 0.0085 | 0.0045 ± 0.0078 | 0.0065 ± 0.005 | 0.0095 ± 0.0021
12 | 3C:CD87/uPAR | -0.037 ± 0.0085 | -0.018 ± 0.016 | -0.0095 ± 0.022 | -0.0065 ± 0.018 | 0.0045 ± 0.023 | -0.0295 ± 0.047 | -0.0235 ± 0.039 | -0.0075 ± 0.029 | 0.025 ± 0.0071 | 0.033 ± 0.038 | 0.0465 ± 0.042 | -0.0055 ± 0.047 | -0.0275 ± 0.013 | -0.009 ± 0.037 | -0.222 ± 0.0085 | 0.021 ± 0.0028 | 0.0045 ± 0.015 | -0.0075 ± 0.0064
13 | HDF3CGF:TIMP-1 | 0.0155 ± 0.059 | 0.0025 ± 0.05 | 0.0015 ± 0.0064 | 0.0005 ± 0.096 | 0.1 ± 0.072 | -0.0155 ± 0.05 | -0.0145 ± 0.06 | -0.017 ± 0.1 | -0.006 ± 0.014 | 0.0105 ± 0.015 | 0.007 ± 0.0057 | -0.0355 ± 0.04 | 0.0065 ± 0.0035 | 0.0265 ± 0.042 | 0.156 ± 0.016 | 0 ± 0.0099 | -0.0525 ± 0.049 | 0.011 ± 0.0071
14 | CASM3C:CXCL9/MIG | -0.011 ± 0.013 | -0.029 ± 0.051 | -0.0075 ± 0.074 | 0 ± 0.0071 | -0.009 ± 0.018 | -0.03 ± 0.011 | -0.0225 ± 0.016 | 0.009 ± 0.024 | -0.004 ± 0.0099 | 0.002 ± 0.0057 | 0.027 ± 0.023 | 0.0195 ± 0.036 | -0.0105 ± 0.011 | 0.0285 ± 0.043 | 0.0875 ± 0.043 | 0.0175 ± 0.025 | 0.006 ± 0.0014 | -0.0065 ± 0.069
15 | HDF3CGF:Proliferation 72hr | -0.0375 ± 0.005 | -0.0485 ± 0.019 | -0.048 ± 0.028 | -0.253 ± 0.048 | -0.443 ± 0.0028 | -0.0185 ± 0.021 | 0.0055 ± 0.025 | -0.008 ± 0.037 | -0.033 ± 0.083 | 0.0165 ± 0.086 | 0.04 ± 0.073 | 0.098 ± 0.023 | 0.23 ± 0.037 | 0.316 ± 0.013 | 0.301 ± 0.021 | 0.002 ± 0.041 | -0.008 | 0.028 ± 0.038
16 | KF3CT:CXCL9/MIG | 0.006 ± 0.0042 | 0.011 ± 0.0085 | 0.007 ± 0.0099 | -0.006 ± 0.0042 | -0.028 ± 0.0028 | 0.0155 ± 0.00071 | -0.003 ± 0.0014 | 0.014 ± 0.011 | -0.0005 ± 0.012 | 0.0005 ± 0.011 | 0 ± 0.0028 | 0.0005 ± 0.0064 | -0.0045 ± 0.0021 | 0.0015 ± 0.0092 | 0 ± 0.0042 | 0.0085 ± 0.016 | -0.001 ± 0.0028 | 0.007 ± 0.011
